From US11684068B2, “Herbicidal compositions and methods of use thereof” (Valent U.S.A. LLC, priority 2018, dated 2023)

Key:
[1] = Metribuzin solubility in salt solutions; format: physicochemical; conditions: saturated in ammonium sulfate, ammonium acetate and potassium citrate tribasic monohydrate solutions; FIG. 1
Procedure: Metribuzin is partially soluble in water. Because of its partial solubility metribuzin grows crystals in aqueous solutions. It is a discovery of the present invention that, if water solubility of metribuzin is lowered, then crystal growth is inhibited or reduced. To determine if salts could lower the water solubility of metribuzin, metribuzin was added to the saturation point to several concentrations of ammonium sulfate, ammonium acetate and potassium citrate tribasic monohydrate solutions. Results can be seen in FIG. 1.

[2] = Wet sieve test and crystal examination after accelerated aging (long-term storage stability); format: physicochemical
Procedure: Variations of Composition 1 from Table 1, above, were subjected to extreme temperatures to determine long-term storage stability including the likelihood of large crystals growing that cause clogging of the spray nozzle by performing the wet sieve test. Specifically, these compositions containing various amounts of polyvinyl alcohol and ammonium sulfate were subjected to 2 weeks at 54° C. and 4 weeks at 50° C. accelerated aging. The wet sieve test typically was performed soon after the samples were brought back to room temperature using the following protocol:
A bottle containing the composition was emptied onto a 100-mesh sieve positioned on top of a receiver. Water was added to the bottle, shaken to rinse, and the rinse solution was poured onto the mesh to wash off the material. The rinsing step was repeated until visible quantity of residue on the mesh remained constant. If necessary, additional, minimum streams of water were introduced by way of a squirt or spray bottle to further clear the mesh. Typically, about 250 milliliters of water was used for about 40 grams of sample. The mesh was then dried to a constant weight and observed under a microscope.
(§1) Variations of Composition 2 from Table 1, above, were subjected to several conditions to determine long-term storage stability including % wet sieve test residue. Specifically, these compositions contained 0% or 2.8% w/w of polyvinyl alcohol and 0% or 2.8% w/w ammonium sulfate or 0% or 2.8% or 5.6% w/w potassium citrate and were subjected to 2 weeks at 54° C. and 4 weeks at 50° C.
Variations of Composition 3 from Table 1 above were subjected to several conditions to determine long-term storage stability including % wet sieve test residue. Specifically, these compositions contained 0 or 2.8% w/w of polyvinyl alcohol and 0% or 2.8% w/w ammonium sulfate and were subjected to 2 weeks at 54° C.
as §1, with “Composition 4” for “Composition 2”, “sulfate” for “sulfate or 0% or 2.8% or 5.6% w/w potassium citrate”, “C.” for “C. and 4 weeks at 50° C.”
Compositions 5-7 from Table 1, above, were subjected to several conditions to determine long-term storage stability including % wet sieve test residue. Specifically, these compositions contained 1.4% or 1.5% w/w of polyvinyl alcohol and 2.0% or 2.8% w/w ammonium sulfate and were subjected to 2 weeks at 54° C. and 4 weeks at 50° C.

[3] = variations of Composition 2, 54° C. 2 weeks and 50° C. 4 weeks

Structure (SMILES)	water solubility of metribuzin versus salt concentration [1]	effect of additive on crystal growth and sieve residue [2, 3]	effect of additive on crystal growth and sieve residue ([2]; variations of Composition 3, 54° C. 2 weeks)	effect of additive on crystal growth and sieve residue ([2]; variations of Composition 4, 54° C. 2 weeks)
CSc1nnc(C(C)(C)C)c(=O)n1N [metribuzin]	negatively correlated			
O=C([O-])CC(O)(CC(=O)[O-])C(=O)[O-].[K+].[K+].[K+] [Potassium citrate]		completely inhibited crystal growth		
N.N.O=S(=O)(O)O [Ammonium sulfate]		reduced crystal growth to small crystals	reduced the amount of crystals isolated on the sieve substantially	inhibited crystal growth and lowered sieve residue
